From patent US20150238487A1, “NOVEL ERGOLINE DERIVATIVES AND USES THEREOF” (MAP Pharmaceuticals, Inc., priority 2012, published 2015) come the findings set out here.

As usually defined, the pIC50 is the negative decadic logarithm of the IC50, by convention in mol/L.

pIC50: −log10 of the molar value. A value given as a limit tells only on which side of the number the result lay.

Test [1] has as its system Glutamate (mG1u3/mG1u5/mG1u7). Nature of the test: Glutamate receptor assays (Aequorin mGlu3/mGlu5, cAMP mGluR7). Format: cell-based, human. The following applies: Aequorin (mGluR3, mGluR5). How it is done:
Receptor […] activity assays were performed using 8′OH-2-CF3-dihydroergotamine (8′OH-2-CF3-DHE). Table 1 summarizes the cell lines (CHO-K1/HEK293 transfected with relevant human receptor) and the assays performed to detect any agonist or antagonist activity. […]
For agonist testing, 30 μL of cell suspension was mixed with 30 μL of test or reference agonist in a 384-well plate. The resulting emission of light was recorded using Hamamatsu Functional Drug Screening System 6000 (FDSS 6000) luminometer. […] The resulting emission of light was recorded using Hamamatsu Functional Drug Screening System 6000 (FDSS 6000) luminometer.
cAMP HTRF (Gi) studies were conducted to monitor activity for 8′OH-2CF3-dihydroergotamine (8′OH-2CF3-DHE) against the receptors indicated in Table 1 above. […] Lysis buffer was added and after a 1 hour incubation, cAMP concentrations was determined according to the manufacturer specification with the HTRF kit. […] Lysis buffer was added and after a 1 hour incubation, cAMP concentrations were determined according to the manufacturer specification, with the HTRF kit.

The subject of test [2] is Somatostatin (SST1 ~ SSTS). Nature of the test: GTPγ[35S] assay, Somatostatin receptors. Format: biochemical, human. Conditions: CHO-K1 membranes. As for the experimental part:
(§1) Receptor […] activity assays were performed using 8′OH-2-CF3-dihydroergotamine (8′OH-2-CF3-DHE). Table 1 summarizes the cell lines (CHO-K1/HEK293 transfected with relevant human receptor) and the assays performed to detect any agonist or antagonist activity.
(§2) GTPγS studies were conducted to monitor agonist activity for 8′OH-2CF3-dihydroergotamine (8′OH-2CF3-DHE) against the receptors indicated in Table 1 above. Reagents used were the following: Assay buffer (20 mM HEPES, pH 7.4; 100 mM NaCl; 10 μg/mL saponin; 30 mM MgCl2); Membranes (recombinant human receptor membrane extracts were thawed on ice and diluted in assay buffer to give 1000 μg/mL ([…]) and kept on ice); GDP (diluted in assay buffer to give 30 μM solution (3 μM final concentration); beads (PVT-WGA (Amersham, RPNQ001), diluted in assay buffer at 25 mg/mL (0.25 mg/10 μL)); GTPγ^35S (Perkin Elmer, NEG030X), diluted in assay buffer to give 0.1 nM (final concentration); and ligand (agonist/antagonist diluted in assay buffer).
(§3) Membranes were mixed with GDP (1:1) and incubated for at least 15 minutes on ice. In parallel GTPγ^35S was mixed with the beads (1:1) just before starting the reaction. […] The plates were then centrifuged for 10 minutes at 2000 rpm and incubated at room temperature for 1 hour and counted for 1 min/well with a Perkin Elmer TopCount reader.

In test [3] the target is T1, Adrenergic α2B (Homo sapiens, UniProt P18089).
T1 construct: expressed in transfected cells; host or cells: CHO-K1 (membrane extracts)
Nature of the test: GTPγ[35S] assay, Adrenergic α2B. Format: biochemical. The following applies: antagonism, CHO-K1 membranes, read-out: Activity (Antagonism: IC50), Adrenergic a2B. How it is done: as §1, §2, §3

Test [4] deals with T2, NK1 (Homo sapiens, UniProt P25103).
T2 construct: expressed in transfected cells; host or cells: CHO-AEQ (CHO-K1 coexpressing mitochondrial apoaequorin)
Nature of the test: Aequorin assay, Neurokinin NK1. Type of test: cell-based. Conditions: antagonism, CHO-AEQ. As for the experimental part: as §1
Aequorin assays were conducted to monitor activity for 8′OH-2CF3-dihydroergotamine (8′OH-2CF3-DHE) against the receptors indicated in Table 1 above (except for mGlu3 and mGlu5). CHO-K1 cells coexpressing mitochondrial apoaequorin and the recombinant human receptor of interest were grown to mid-log phase in culture media without antibiotics and then detached with PBS-EDTA, centrifuged and resuspended in assay buffer (DMEM/HAM's F12 with HEPES, without phenol red+0.1% BSA, protease free) at a concentration of 1×10^6 cell/mL. […]
50 μL of the cell suspension was mixed with 50 μL of test or reference agonist in a 96-well plate. The resulting emission of light was recorded using Hamamatsu Functional Drug Screening System 6000 (FDSS 6000) luminometer. […]
To standardize the emission of recorded light (and determine of the “100% signal”) across plates and across different experiments, some wells contained 100 μM digitonin or a saturating concentration of ATP (20 μM).

T1 sequence (P18089 whole entry): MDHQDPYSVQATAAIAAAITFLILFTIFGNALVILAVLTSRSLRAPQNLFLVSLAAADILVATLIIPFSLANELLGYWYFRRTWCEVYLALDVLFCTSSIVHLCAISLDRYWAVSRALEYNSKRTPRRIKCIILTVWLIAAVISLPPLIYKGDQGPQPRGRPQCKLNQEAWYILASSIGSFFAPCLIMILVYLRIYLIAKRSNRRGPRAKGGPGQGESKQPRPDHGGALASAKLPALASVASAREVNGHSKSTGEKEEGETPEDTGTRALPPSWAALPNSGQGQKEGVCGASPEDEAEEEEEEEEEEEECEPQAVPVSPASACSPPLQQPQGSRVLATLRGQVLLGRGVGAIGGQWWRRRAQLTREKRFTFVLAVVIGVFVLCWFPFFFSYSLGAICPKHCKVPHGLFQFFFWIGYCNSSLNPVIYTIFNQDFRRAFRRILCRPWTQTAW
T2 sequence (P25103 whole entry): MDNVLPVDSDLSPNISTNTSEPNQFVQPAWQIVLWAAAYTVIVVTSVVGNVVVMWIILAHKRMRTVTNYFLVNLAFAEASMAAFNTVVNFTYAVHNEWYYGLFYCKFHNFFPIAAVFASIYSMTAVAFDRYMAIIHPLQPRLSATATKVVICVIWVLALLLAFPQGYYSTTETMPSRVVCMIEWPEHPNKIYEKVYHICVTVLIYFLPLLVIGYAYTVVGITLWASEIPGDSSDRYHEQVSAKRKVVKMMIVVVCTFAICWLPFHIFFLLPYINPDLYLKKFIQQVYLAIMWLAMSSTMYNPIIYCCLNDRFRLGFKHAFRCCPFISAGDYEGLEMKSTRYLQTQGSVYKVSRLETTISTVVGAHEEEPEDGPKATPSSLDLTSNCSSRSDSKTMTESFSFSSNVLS

On to `CN1C[C@H](C(=O)N[C@]2(C)O[C@@]3(O)[C@@H]4CC[C@@H](O)N4C(=O)[C@H](Cc4ccccc4)N3C2=O)C[C@@H]2c3cccc4[nH]c(C(F)(F)F)c(c34)C[C@H]21` [8′OH-2-CF3-DHE, 8′-Hydroxy-2-CF3-dihydroergotamine], for which the “Activity (Agonism: EC50; Antagonism: IC50), Glutamate (mG1u3/mG1u5/mG1u7)” value in test [1] was “Inactive”. The “Activity (Agonism: EC50; Antagonism: IC50), Somatostatin (SST1 ~ SSTS)” value in test [2] is given as “Inactive”. Moreover, the pIC50 in test [3] was 6.11; in test [4], under 6.00.
